{"source": "patent US20060019907A1", "about": "“Guggulsterone: an inhibitor of nuclear factor - kappaB and IkappaBalpha kinase activation and uses thereof” (Research Development Foundation, priority 2004, published 2006)", "key": {"IKK": {"system": "IKK", "experiment": "RANKL-induced IKK activity, IKK assay", "type": "cell-based, mouse", "settings": "RAW 264.7"}, "[1]": {"system": "caspase 8, cytochrome c, caspase 3, PARP", "experiment": "Caspase activation, cytochrome c release and PARP cleavage, Western blot", "type": "cell-based, human", "settings": "U937; 10 μM", "experimental": "Western blot analysis. Thirty to fifty micrograms of cytoplasmic, nuclear or whole cell protein was resolved on 10% SDS-PAGE gel, transferred to a nitrocellulose membrane, blocked with 5% non-fat milk, and probed with specific antibodies as per manufacturer's recommended protocol. The blots were washed, exposed to HRP-conjugated secondary antibodies for 1 h, and detected by ECL reagent (Amersham Pharmacia Biotechnology, Piscataway, N.J.). The bands were quantitated using a Personal Densitometer Scan v1.30 using Imagequant software version 3.3 (Molecular Dynamics).\nMeasurement of cytochrome c release. To determine the effect of guggulsterone on cytochrome c release, cells were treated with guggulsterone as indicated and then the cytosolic extracts were prepared as described (Yang, 1997). Briefly, the cells were washed with PBS, resuspended in the buffer containing 0.25 M sucrose, 30 mM Tris-HCl (pH 7.9), 1 mM EDTA, 1 mM PMSF, 2 mM sodium orthovanadate, 10 mM NaF, 2 μg/ml leupeptin, and 2 μg/ml aprotinin and then homogenized gently with a glass Dounce homogenizer for 20 strokes. The homogenates were centrifuged at 2000 rpm for 10 min to remove nuclei, and the supernatants were centrifuged at 14,000 rpm for 30 min to remove mitochondria and other insoluble fragments. The supernatants were again centrifuged as above to ensure complete removal of mitochondria. Protein ([…]) was subjected to 15% SDS-PAGE, and then Western blot analysis was performed using anti-cytochrome c antibody.\nPARP cleavage assay. For detection of cleavage products of PARP, whole-cell extracts were prepared by subjecting guggulsterone-treated cells to lysis in lysis buffer (20 mM Tris, pH 7.4; 250 mM NaCl; 2 mM EDTA, pH 8.0; 0.1% Triton-X 100; 0.01 μg/ml aprotinin; 0.005 μg/ml leupeptin; 0.4 mM PMSF; and 4 mM NaVO4). Lysates were spun at 14000 rpm for 10 min to remove insoluble material, resolved by 10% SDS PAGE, and probed with PARP antibodies."}, "NF-κB": {"system": "NF-κB", "experiment": "NF-κB-dependent reporter gene (SEAP) transcription", "type": "cell-based, human", "experimental": "NF-κB-dependent Reporter Gene Transcription: The effect of guggulsterone on TNF-induced NF-κB dependent reporter gene transcription was measured as previously described (Manna et al., 2000). Briefly, H1299 cells (5×10^5 cells/well) were plated in six-well plates and transiently transfected the next day by LIPOFECTAMINETM 2000 method with pNF-κB-SEAP using the manufacturer's protocol. To examine TNF-induced reporter gene expression, cells was transfected with 2 μg of the SEAP expression plasmid. After 18 hours, medium was removed, cells were rinsed and treated with various doses of guggulsterone for 4 hours and then treated with TNF. Twenty four hours later, the cell culture medium was harvested and analyzed for alkaline phosphatase (SEAP) activity essentially according to the protocol described by the manufacturer (Clontech, Palo Alto, Calif.) using a 96-well fluorescence plate reader ([…]; Labsystems, Chicago, Ill.) with excitation set at 360 nm and emission set at 460 nm."}, "JNK": {"system": "JNK", "experiment": "JNK kinase assay", "type": "cell-based, human", "settings": "U937; 10 μM", "experimental": "JNK kinase assay. To determine the effect of guggulsterone on the kinase activity of JNK, JNK complex from whole-cell extracts was precipitated with antibody against JNK1, followed by treatment with protein A/G-Sepharose beads (Pierce, Rockford, Ill.). After 2 h of incubation, the beads were washed with lysis buffer and then assayed in kinase assay mixture containing 50 mM HEPES (pH 7.4), 20 mM MgCl2, 2 mM dithiothreitol, 20 μCi of [γ-^32P]ATP, 10 μM unlabeled ATP, and 2 μg of substrate GST-c-Jun (1-79). The immunocomplex was incubated at 30° C. for 30 min and then boiled with SDS sample buffer for 5 min. Finally, the protein was resolved on 10% SDS-PAGE, the gel was dried, and the radioactive bands were visualized using the PhosphorImager. To determine the total amount of JNK1 in each sample, whole-cell extracts were subjected to Western blot analysis using anti-JNK1 antibody."}, "IκBα": {"system": "IκBα", "experiment": "TNF-dependent IκBα degradation and phosphorylation, Western blot", "type": "cell-based, human", "settings": "H1299; 50 μM, 4 hours, 0.1 nM TNF", "experimental": "Western Blot Analysis: To determine the effect of guggulsterone on TNF-dependent IκBα phosphorylation, IκBα degradation, p65 translocation and p65 phosphorylation, cytoplasmic extracts were prepared as previously described (Majumdar et al., 2001) from H1299 (2×10^6/ml) pretreated with 50 μM guggulsterone for 4 h and then exposed to 0.1 nM TNF for various times. Thirty micrograms of cytoplasmic protein was resolved on 10% SDS-PAGE gel, transferred to a nitrocellulose membrane, blocked with 5% non-fat milk, and probed with specific antibody against IκBα, posphorylated IκBα, p65 and phosphorylated p65. To determine the expression of cyclin D1, COX-2, MMP-9, clAP-1, xlAP, TRAF1, Bcl-2, Bfl-1, cFLIP, and survivin, whole-cell extracts were prepared from treated cells (2×10^6 cells in 2 ml medium), 30-50 μg protein was resolved on SDS-PAGE gel and probed by Western blot with specific antibodies as per manufacturer's recommended protocol. The blots were washed, exposed to HRP-conjugated secondary antibodies for 1 hour, and finally detected by ECL reagent (Amersham Pharmacia Biotech.). The bands were quantitated using a Personal Densitometer Scan v1.30 using IMAGEQUANT™ software version 3.3 (Molecular Dynamics)."}, "[2]": {"system": "inducible nitric oxide synthetase (iNOS)", "settings": "Meselhy et al., 2003; cited from earlier work"}, "KBM-5 cells": {"system": "KBM-5 cells", "experiment": "Live and Dead (calcein AM) assay, TNF plus guggulsterone", "type": "cell-based, human", "settings": "TNF in combination with guggulsterone, 24 hours", "source_text": "Live and Dead Assay: To measure apoptosis, the Live and Dead assay (Molecular Probes) was used, which determines intracellular esterase activity and plasma membrane integrity. This assay employs calcein, a polyanionic dye, which is retained within the live cells and provides green fluorescence. It also employs the ethidium […] dye (red fluorescence), which can enter the cells only through damaged membranes and bind to nucleic acids but is excluded by the intact plasma membrane of live cells. Briefly, 1×10^5 cells are incubated with 10 μM guggulsterone for 24 h and then treated with 1 nM TNF for 16 hours at 37° C. Cells are stained with the Live and Dead reagent (5 μM ethidium homodimer, 5 μM calcein-AM) and then incubated at 37° C. for 30 min. Cells were analyzed under a fluorescence microscope (Labophot-2)."}}}
{"compound": "CC=C1C(=O)C[C@H]2[C@@H]3CCC4=CC(=O)CC[C@]4(C)[C@H]3CC[C@]12C", "note": "[guggulsterone, 4,17(20)-pregnadiene-3,16-dione]", "values": [{"measurement": "RANKL-induced IKK activity (phosphorylation of GST-IκBα)", "setting": "IKK; 50 μM, 4 h pre-incubation, 10 nM RANKL", "value": "could not phosphorylate GST-IκBα upon RANKL treatment"}, {"measurement": "expression of IKK-α and IKK-β", "setting": "IKK; Western blot", "value": "did not alter the expression of IKK-α and IKK-β"}, {"measurement": "caspase 3 activation and PARP cleavage", "setting": "[1]", "value": "activation of caspase 3 and PARP cleavage"}, {"measurement": "caspase 8 activation (receptor-mediated apoptosis)", "setting": "[1]", "value": "activation of caspase 8"}, {"measurement": "mitochondrial cytochrome c release (non-receptor mediated apoptosis)", "setting": "[1]", "value": "mitochondrial cytochrome c release"}, {"measurement": "NF-κB-dependent SEAP expression induced by TNFR, TRADD, NIK and IKKβ plasmids", "setting": "NF-κB; H1299, 50 μM, 4 hours", "value": "suppressed reporter gene expression induced by TNFR, TRADD, NIK and IKKβ plasmids"}, {"measurement": "NF-κB-dependent SEAP expression induced by p65 plasmid", "setting": "NF-κB; H1299, 50 μM, 4 hours", "value": "had no effect on that induced by p65"}, {"measurement": "TNF-induced NF-κB-dependent SEAP expression", "setting": "NF-κB; H1299 cells, 0.1 nM TNF 24 hours", "value": "inhibited by guggulsterone in a dose-dependent manner"}, {"measurement": "JNK activation", "setting": "JNK", "value": "activation of JNK"}, {"measurement": "TNF-induced IκBα degradation", "setting": "IκBα", "value": "TNF had no effect on IκBα degradation"}, {"measurement": "TNF-induced IκBα phosphorylation", "setting": "IκBα", "value": "almost completely suppressed IκBα phosphorylation"}, {"measurement": "iNOS expression induced by LPS in macrophages", "setting": "[2]", "value": "inhibiting inducible nitric oxide synthetase (iNOS) expression"}, {"measurement": "TNF-induced apoptosis, calcein AM-based live/dead assay", "setting": "KBM-5 cells", "value": "TNF-induced apoptosis was significantly enhanced"}]}
